This note sets out measurements from patent US20200352931A1, “OXALAMIDES AS MODULATORS OF INDOLEAMINE 2,3-DIOXYGENASE” (PHENEX DISCOVERY VERWALTUNGS-GMBH, priority 2017, published 2020).

This assay deals with T1, Indoleamine 2,3-Dioxygenase (IDO1) in SKOV-3 cells (Homo sapiens, UniProt P14902).
T1 construct: endogenous in cells; host or cells: SKOV-3 (ATCC HTB-77), stimulated with 50 ng/ml interferon gamma
T1 sequence (P14902 whole entry): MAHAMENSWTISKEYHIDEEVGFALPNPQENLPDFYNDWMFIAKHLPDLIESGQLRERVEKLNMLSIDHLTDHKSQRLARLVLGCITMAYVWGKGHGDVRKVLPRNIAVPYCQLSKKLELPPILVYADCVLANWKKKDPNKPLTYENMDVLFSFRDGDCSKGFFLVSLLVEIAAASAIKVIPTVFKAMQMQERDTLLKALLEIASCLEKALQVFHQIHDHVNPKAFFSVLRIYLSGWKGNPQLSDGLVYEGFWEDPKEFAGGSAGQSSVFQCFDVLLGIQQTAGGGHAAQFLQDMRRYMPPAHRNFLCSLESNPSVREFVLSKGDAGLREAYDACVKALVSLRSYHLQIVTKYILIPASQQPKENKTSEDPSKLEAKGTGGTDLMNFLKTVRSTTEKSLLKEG
The assay can be described thus: SKOV-3 cellular indoleamine 2,3-dioxygenase assay. As to conditions: 50 ng/ml Interferon gamma, 100 μM L-Tryptophan, 24 hours, N-Formylkynurenin fluorescence, read-out: cell based activity (IC50). The method, then: SKOV-3 Cellular Indoleamine 2,3-Dioxygenase Assay
SKOV-3 cells were obtained from the American Type Culture Collection (ATCC® HTB-77™) and maintained in McCoy's medium (Pan Biotech) supplemented with 10% fetal bovine serum and 1% Penicilin/Streptomycin. Cells were kept at 37° C. in a humidified incubator with 5% CO2. For assay preparation, cells were seeded at a density of 2*10^5/m into black clear bottom 96 well plates in 100 μl medium/well supplemented with 50 ng/ml Interferon gamma (eBioscience, Thermo Fisher Scientific). After cells fully adhered to the plate, dilution series of compounds were added in medium containing additional L-Tryptophan to a final L-Tryptophan concentration of 100 μM. The cells were incubated for 24 hours. Detection of produced N-Formylkynurenin was performed by addition of 3-Methylpiperidine to a final concentration of 200 mM. The plates were sealed and heated to 65° C. for 20 minutes in a water bath. After cooling the fluorescence of each well was recorded with a Victor™ X4 (PerkinElmer) plate reader at an emission wavelength of 535 nm and excitation at 405 nm (Tomek et al.; Anal Bioanal Chem (2013) 405:2515-2524., Tomek et al.; Biochim Biophys Acta. 2015 September; 1850(9):1772-80).
As a reminder, the IC50 is the point on the concentration scale where inhibition reaches its midpoint. `O=C(Nc1ccc(Cl)cc1)C(=O)N1CC[C@H](c2ccnc3ccc(F)cc23)[C@H](O)C1` (single isomer, unassigned) [10/1a]: the IC50 was 100 to 1000 nM.
The figure for `O=C(Nc1ccc(Cl)cc1)C(=O)N1CC[C@@H](c2ccnc3ccc(F)cc23)[C@@H](O)C1` (single isomer, unassigned) [10/1b] is > 1000 nM; for `CO[C@@H]1CN(C(=O)C(=O)Nc2ccc(Cl)cc2)CC[C@H]1c1ccnc2ccc(F)cc12` (single isomer, unassigned) [10/2a] it is < 100 nM.
Consider `CO[C@H]1CN(C(=O)C(=O)Nc2ccc(Cl)cc2)CC[C@@H]1c1ccnc2ccc(F)cc12` (single isomer, unassigned) [10/2b], for which the IC50 was < 100 nM.
As for `O=C(Nc1ccc(Cl)cc1)C(=O)N1CC[C@@H](c2ccnc3ccc(F)cc23)[C@H](O)C1` (single isomer, unassigned) [Example 10a, trans-N-(4-Chlorophenyl)-2-(4-(6-fluoroquinolin-4-yl)-3-hydroxypiperidin-1-yl)-2-oxoacetamide], the IC50 was < 100 nM.
Turning to `O=C(Nc1ccc(Cl)cc1)C(=O)N1CC[C@@H](c2ccnc3ccc(F)cc23)[C@H](O)C1` (single isomer, unassigned) [Example 10b, trans-N-(4-Chlorophenyl)-2-(4-(6-fluoroquinolin-4-yl)-3-hydroxypiperidin-1-yl)-2-oxoacetamide], the 50% inhibitory concentration (IC50) was < 100 nM.
The figure for `O=C(Nc1ccc(Cl)cc1)C(=O)N1CCC(c2ccccc2)CC1` [1/1] is < 100 nM.
Regarding `O=C(Nc1ccc(Cl)cc1F)C(=O)N1CCC(c2ccnc3ccccc23)CC1` [1/2], the IC50 was < 100 nM.
`O=C(Nc1ccc(Cl)cc1)C(=O)N1CCC(c2ccnc3ccccc23)CC1` [1/3]: the IC50 was < 100 nM.
For `O=C(Nc1ccc(Cl)cc1F)C(=O)N1CCC(c2cc(C(F)(F)F)nc3ccccc23)CC1` [1/4] the value was 100 to 1000 nM; for `O=C(Nc1ccc(Cl)cc1F)C(=O)N1CCC(c2ccnc3ccnn23)CC1` [1/5], 100 to 1000 nM; for `O=C(Nc1ccc(Cl)cc1F)C(=O)N1CCC(c2ccnc3ccc(F)cc23)CC1` [1/6], < 100 nM.
For `O=C(Nc1ccc(Cl)cc1F)C(=O)N1CCC(c2ccccc2)C1` (centres unmarked) [1/7] the value was > 1000 nM; for `O=C(Nc1ccc(Cl)cn1)C(=O)N1CCCC(c2ccnc3ccccc23)CC1` (centres unmarked) [1/8], < 100 nM.
Turning to `O=C(Nc1ccc(Cl)cn1)C(=O)N1CCC(O)(c2ccnc3ccccc23)CC1` [1/9], the concentration for half-maximal inhibition (IC50) was > 1000 nM.
For the compound `O=C(Nc1ccc(Cl)cn1)C(=O)N1C2CCC1CC(c1ccnc3ccccc13)C2` (centres unmarked) [1/10], the IC50 was 100 to 1000 nM.
For `CC1(C)CC(c2ccnc3ccccc23)CCN1C(=O)C(=O)Nc1ccc(Cl)cn1` (centres unmarked) [1/11] the value was < 100 nM; for `O=C(Nc1ccc(Cl)cc1F)C(=O)N1CCC=C(c2ccnc3ccc(F)cc23)CC1` [1/12], < 100 nM; for `N#Cc1ccc(NC(=O)C(=O)N2CCC(c3ccnc4ccc(F)cc34)CC2)cc1` [1/14], < 100 nM.
For the compound `O=C(Nc1cccc(C(F)(F)F)c1)C(=O)N1CCC(c2ccnc3ccc(F)cc23)CC1` [1/15], the half-inhibitory concentration (IC50) lay in the range of 100 to 1000 nM.
The figure for `O=C(Nc1ccc(F)c(Cl)c1)C(=O)N1CCC(c2ccccc2)CC1` [1/16] is > 1000 nM.
For `O=C(Nc1ccc(C(F)(F)F)cc1F)C(=O)N1CCC(c2ccnc3ccc(F)cc23)CC1` [1/17] the value was < 100 nM.
The figure for `O=C(Nc1ccc(Cl)c(F)c1)C(=O)N1CCC(c2ccnc3ccc(F)cc23)CC1` [1/18] is < 100 nM.
For `O=C(Nc1cc(F)c(Cl)cc1F)C(=O)N1CCC(c2ccnc3ccc(F)cc23)CC1` [1/19], the IC50 is < 100 nM.
Regarding `O=C(Nc1ccc(C(F)(F)F)c(Cl)c1)C(=O)N1CCC(c2ccnc3ccc(F)cc23)CC1` [1/20], the IC50 is > 1000 nM.
For `O=C(Nc1ccc(C(F)(F)F)c(F)c1)C(=O)N1CCC(c2ccnc3ccc(F)cc23)CC1` [1/21] the value was 100 to 1000 nM.
The figure for `O=C(Nc1ccc(C(F)F)cc1)C(=O)N1CCC(c2ccnc3ccc(F)cc23)CC1` [1/22] is < 100 nM; for `N#Cc1ccc(NC(=O)C(=O)N2CCC(c3ccnc4ccc(F)cc34)CC2)c(F)c1` [1/23] it is < 100 nM; for `Cc1ccc(NC(=O)C(=O)N2CCC(c3ccnc4ccc(F)cc34)CC2)c(F)c1` [1/24] it is < 100 nM.
As for `O=C(Nc1ccc(C(F)F)cc1F)C(=O)N1CCC(c2ccnc3ccc(F)cc23)CC1` [1/25], the IC50 is < 100 nM.
Turning to `O=C(Nc1ccc(Br)cc1F)C(=O)N1CCC(c2ccnc3ccc(F)cc23)CC1` [1/26], the IC50 was < 100 nM.
The figure for `O=C(Nc1ccc(Br)cc1)C(=O)N1CCC(c2ccnc3ccc(F)cc23)CC1` [1/27] is < 100 nM; for `O=C(Nc1ccc(F)cc1)C(=O)N1CCC(c2ccnc3ccc(F)cc23)CC1` [1/28] it is < 100 nM.
With `O=C(Nc1ncc(Cl)cc1F)C(=O)N1CCC(c2ccnc3ccc(F)cc23)CC1` [1/29], the half-maximal inhibitory concentration (IC50) is < 100 nM.
The figure for `O=C(Nc1ccc(Cl)cc1)C(=O)N1CCC(c2ccnc3c(F)cc(F)cc23)CC1` [1/30] is < 100 nM; for `O=C(Nc1ccc(Cl)cc1)C(=O)N1CCC(c2ccnc3cc(F)ccc23)CC1` [1/31] it is < 100 nM.
`Cc1cc(Cl)ccc1NC(=O)C(=O)N1CCC(c2ccnc3ccc(F)cc23)CC1` [1/32]: the 50% inhibitory concentration (IC50) lay in the range of 100 to 1000 nM.
`O=C(Nc1ccc(Cl)cn1)C(=O)N1CCC(c2cc(OC(F)F)nc3ccccc23)CC1` [1/33]: the IC50 was > 1000 nM.
The figure for `COc1cc(C2CCN(C(=O)C(=O)Nc3ccc(Cl)cn3)CC2)c2ccccc2n1` [1/34] is > 1000 nM; for `O=C(Nc1ccc(Cl)cn1)C(=O)N1CCC(F)(c2ccnc3ccccc23)CC1` [1/35] it is 100 to 1000 nM.
For `O=C(Nc1ccc(CC(F)(F)F)cc1)C(=O)N1CCC(c2ccnc3ccc(F)cc23)CC1` [1/36] the value was 100 to 1000 nM; for `O=C(Nc1ccc(OC(F)(F)F)cc1)C(=O)N1CCC(c2ccnc3ccc(F)cc23)CC1` [1/37], < 100 nM.
For `O=C(Nc1ccc(SC(F)(F)F)cc1)C(=O)N1CCC(c2ccnc3ccc(F)cc23)CC1` [1/38] the value was < 100 nM.
On to `O=C(Nc1ccc(OC(F)F)cc1)C(=O)N1CCC(c2ccnc3ccc(F)cc23)CC1` [1/39], for which the concentration for half-maximal inhibition (IC50) is < 100 nM.
In the case of `O=C(Nc1ccc(OC(F)F)cc1F)C(=O)N1CCC(c2ccnc3ccc(F)cc23)CC1` [1/40], the 50% inhibitory concentration (IC50) was < 100 nM.
On to `O=C(Nc1ccc(OCC(F)(F)F)cc1)C(=O)N1CCC(c2ccnc3ccc(F)cc23)CC1` [1/41], for which the 50% inhibitory concentration (IC50) was 100 to 1000 nM.
The figure for `CC(C)(O)c1ccc2nccc(C3CCN(C(=O)C(=O)Nc4ccc(Cl)cc4)CC3)c2c1` [1/42] is > 1000 nM; for `NC(=O)c1ccc2nccc(C3CCN(C(=O)C(=O)Nc4ccc(Cl)cc4)CC3)c2c1` [1/43] it is > 1000 nM; for `N#Cc1ccc2nccc(C3CCN(C(=O)C(=O)Nc4ccc(Cl)cc4)CC3)c2c1` [1/44] it is 100 to 1000 nM.
In the case of `CC1(C)CN(C(=O)C(=O)Nc2ccc(Cl)cc2)CCC1c1ccnc2ccc(F)cc12` (centres unmarked) [1/45], the IC50 was < 100 nM.
The figure for `O=C(Nc1ccc(Cl)cc1)C(=O)N1CCC(c2ccnc3ccc(F)cc23)C(F)(F)C1` (centres unmarked) [1/46] is < 100 nM; for `O=C(Nc1ccc(Cl)cc1)C(=O)N1CCC(c2ccnc3ccc(Cl)cc23)CC1` [1/47] it is < 100 nM.
As to `O=C(Nc1ccc(Cl)cc1)C(=O)N1CCC(c2ccnc3cc(Cl)ccc23)CC1` [1/48], the concentration for half-maximal inhibition (IC50) is < 100 nM.
